Results on eight molecules are retold here after PMC12621189, “Optimization of Selective and CNS Penetrant Alkyne-Based TREK Inhibitors: The Discovery and Characterization of ONO-9517601 (VU6022856) and ONO-7927846 (VU6024391)” (Journal of Medicinal Chemistry, 2025).

Series [1] has as its target T1, human TREK-1 (hTREK-1) (Homo sapiens, UniProt O95069).
T1 construct: expressed in transfected cells
T1 sequence (O95069 1-426): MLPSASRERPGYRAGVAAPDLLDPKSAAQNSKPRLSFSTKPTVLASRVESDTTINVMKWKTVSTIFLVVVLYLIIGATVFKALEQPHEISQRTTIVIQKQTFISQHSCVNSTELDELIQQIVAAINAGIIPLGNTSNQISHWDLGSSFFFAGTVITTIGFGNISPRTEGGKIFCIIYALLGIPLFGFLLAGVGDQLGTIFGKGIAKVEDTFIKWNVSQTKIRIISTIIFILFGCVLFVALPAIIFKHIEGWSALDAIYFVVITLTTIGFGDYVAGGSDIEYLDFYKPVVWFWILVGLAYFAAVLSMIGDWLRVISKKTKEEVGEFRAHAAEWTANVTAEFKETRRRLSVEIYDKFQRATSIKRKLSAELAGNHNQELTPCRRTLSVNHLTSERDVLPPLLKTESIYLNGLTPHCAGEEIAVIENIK
In words: TREK-1 thallium flux assay (CHO-K1 cells stably expressing hTREK-1). In kind it is cell-based. As to conditions: human TREK-1, thallium flux; read-out: h TREK-1 Tl+ IC50. The method, then: Procedures for Biological Experiments
TREK-1 Thallium flux assay
CHO-K1 cells stably expressing hTREK-1 were cultured in T225 flask. The cells were loaded with FluxOR dye and plated in 384 well plate at the experiment day. Test compounds or control compound (tert-butyl (3-((4-(benzyloxy)-2-methylphenyl)carbamoyl)-4-chlorophenyl)carbamate) or 0.3% DMSO (vehicle control) were added directly to the cell plates and incubated for 10 min, and then treated with thallium stimulus buffer to initiate thallium flux.
To measure the efficacy and potency of test compounds, the change in fluorescence intensity (ΔRatio) and % inhibition were calculated using the following equations:
ΔRatio = (fluorescence intensity at 25 seconds after thallium addition)/(average of fluorescent intensity before thallium addition)
(§1) 0.3% DMSO - ΔRatio of 10 μM control compound)}x100
(§2) % inhibition vs compound concentration were plotted in XLfit and calculated IC50.
CHO-K1 cells stably expressing human TREK-1 (hTREK-1) were cultured in T225 flask.
The cells were loaded with FluxOR dye and plated in 384 well plate at the experiment day. Test compounds or control compound (tert-butyl (3-((4-(benzyloxy)-2-methylphenyl)carbamoyl)-4-chlorophenyl)carbamate) or 0.3% DMSO (vehicle control) which were prepared on separate plates were added to the cell plates and incubated for 10 min, and then the cells with test compounds or […]
chlorophenyl)carbamate) or 0.3% DMSO (vehicle control) were treated with thallium stimulus buffer to initiate thallium flux. To measure the efficacy and potency of test compounds, the change in fluorescence intensity (ΔRatio) and % inhibition were calculated using the following equations: […]

Series [2] is described as follows: ChromatoLogD. In kind it is physicochemical.
In series [3] the target is T2, human TREK-2 (hTREK-2) (Homo sapiens, UniProt P57789).
T2 construct: expressed in transfected cells
T2 sequence (P57789 1-538): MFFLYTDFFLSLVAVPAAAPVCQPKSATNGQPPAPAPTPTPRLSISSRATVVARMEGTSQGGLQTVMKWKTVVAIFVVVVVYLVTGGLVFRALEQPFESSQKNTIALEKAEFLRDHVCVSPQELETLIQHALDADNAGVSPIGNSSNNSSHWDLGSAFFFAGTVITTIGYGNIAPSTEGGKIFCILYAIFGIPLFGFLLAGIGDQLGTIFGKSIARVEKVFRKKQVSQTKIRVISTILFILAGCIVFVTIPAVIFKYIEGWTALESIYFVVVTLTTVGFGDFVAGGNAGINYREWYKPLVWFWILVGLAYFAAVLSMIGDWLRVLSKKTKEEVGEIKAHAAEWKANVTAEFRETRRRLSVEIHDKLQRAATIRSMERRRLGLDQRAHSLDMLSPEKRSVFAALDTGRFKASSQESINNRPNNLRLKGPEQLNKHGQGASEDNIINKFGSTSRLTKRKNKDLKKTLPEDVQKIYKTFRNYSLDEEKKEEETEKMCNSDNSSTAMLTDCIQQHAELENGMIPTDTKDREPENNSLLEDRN
In words: TREK-2 thallium flux assay (HEK293 cells stably expressing hTREK-2). The format is cell-based. The note with it: human TREK-2, thallium flux; read-out: h TREK-2 Tl+ IC50. On the procedure: as §1, §2
TREK-2 Thallium flux assay
HEK293 cells stably expressing human TREK-2 (hTREK-2) are plated in 384-well plates, cultured overnight, loaded with Thallos dye the following day. Test compounds or control compound (tert-butyl (3-((4-(benzyloxy)-2-methylphenyl)carbamoyl)-4-chlorophenyl)carbamate) or 0.3% DMSO (vehicle control) which are prepared on separate plates are added to the cell plates and incubated for 10 min, and then the cells were treated with thallium stimulus buffer to initiate […]
To measure the efficacy and potency of test compounds, the change in fluorescence intensity (ΔRatio) and % inhibition are calculated using the following equations: […]

The structures appear in SMILES notation.

One may read the IC50 as the concentration that inhibits the measured activity by half. Take `Cc1cc(C#Cc2ccccc2)cnc1NC(=O)c1c(Cl)cnn1CC1COCCO1` (stereo not drawn) [Compound 8, 1-((1,4-Dioxan-2-yl)methyl)-4-chloro-N-(3-methyl-5-(phenylethynyl)pyridin-2-yl)-1H-pyrazole-5-carboxamide]: the IC50 in series [1] was found to be 670 nM.

The term chromatographic logD denotes lipophilicity estimated from chromatographic retention. `Cc1cc(C#Cc2ccccc2)cnc1NC(=O)c1cc(NC(=O)OC(C)(C)C)ccc1Cl` [Compound 13e] gave a chromatographic logD in series [2] of 5.15. The IC50 in series [1] stood at 140 nM.

Take `Cc1cc(C#Cc2ccccc2)cnc1NC(=O)c1c(Cl)cnn1CC1CCOCC1` [Compound 14b, 4-Chloro-N-(3-methyl-5-(phenylethynyl)pyridin-2-yl)-1-((tetrahydro-2H-pyran-4-yl)methyl)-1H-pyrazole-5-carboxamide]: in series [1], the IC50 turned out to be 200 nM.

Consider `CC(=O)N1CCC(n2ncc(Cl)c2C(=O)Nc2ncc(C#Cc3ccccc3)cc2C)C(F)C1` (stereo not drawn) [Compound 16a, 1-(1-Acetyl-3-fluoropiperidin-4-yl)-4-chloro-N-(3-methyl-5-(phenylethynyl)pyridin-2-yl)-1H-pyrazole-5-carboxamide], for which the results for the IC50 in series [3] and in series [1] were 280 nM and 98 nM, respectively.

Take `CC(=O)N1CC[C@@H](n2ncc(Cl)c2C(=O)Nc2ncc(C#Cc3ccccc3)cc2C)[C@@H](F)C1` [Compound 16c, 1-((3S,4R)-1-Acetyl-3-fluoropiperidin-4-yl)-4-chloro-N-(3-methyl-5-(phenylethynyl)pyridin-2-yl)-1H-pyrazole-5-carboxamide]: the IC50 in series [3] came out at 530 nM; in series [1], 160 nM.

Regarding `CC(=O)N1CC[C@H](n2ncc(Cl)c2C(=O)Nc2ncc(C#Cc3ccccc3)cc2C)[C@H](F)C1` [Compound 16d, 1-((3R,4S)-1-Acetyl-3-fluoropiperidin-4-yl)-4-chloro-N-(3-methyl-5-(phenylethynyl)pyridin-2-yl)-1H-pyrazole-5-carboxamide], the IC50 in series [3] worked out at 530 nM.

Take `CC(=O)N1CC[C@H](n2ncc(Cl)c2C(=O)Nc2ncc(C#Cc3ccccc3)cc2F)[C@H](F)C1` [Compound 16e, 1-((3R,4S)-1-Acetyl-3-fluoropiperidin-4-yl)-4-chloro-N-(3-fluoro-5-(phenylethynyl)pyridin-2-yl)-1H-pyrazole-5-carboxamide]: the values for the 50% inhibitory concentration (IC50) in series [3] and in series [1] were 330 nM and 70 nM, respectively.

For the molecule `CC(=O)N1CC[C@H](n2ncc(Cl)c2C(=O)Nc2ncc(C#Cc3ccccc3)cc2F)[C@@H](F)C1` [Compound 16f, 1-((3S,4S)-1-Acetyl-3-fluoropiperidin-4-yl)-4-chloro-N-(3-fluoro-5-(phenylethynyl)pyridin-2-yl)-1H-pyrazole-5-carboxamide], in series [3], the IC50 was 470 nM.
